The record followed here is patent US12358948B2, “Neurotensinergic agonists and methods of using same preventing or treating pain” (priority 2019, dated 2025).

SMILES strings stand for the structures. Where two headings read alike, the source gives them in different places. *1 amine or outer side, *2 acyl side, *3 side chain or, on linkers, in order; H or OH if unused. Where a SMILES comes first, the peptide text is derived from it. Bridges are numbered along the chain shown (N, C = ends). [ ]: non-standard residue; d: D form. ξ: configuration not given here. ξαMeNle(6-ylidene) = CC(CCCC=[*:3])(N[*:1])C(=O)[*:2]; Phe(4-Br) = N[C@@H](Cc1ccc(Br)cc1)C(=O)O; Ala(cPent) = N[C@@H](CC1CCCC1)C(=O)O; AllylGly = C=CC[C@H](N)C(=O)O Some results are limits rather than exact numbers.

In experiment [1] the target is T1, hNTS1 receptor (Homo sapiens, UniProt P30989).
T1 construct: membranes prepared from them
The experiment in a line: Competitive radioligand binding assay on the hNTS1 receptor. The conditions noted are these: membranes of CHO-K1 cells expressing hNTS1. The procedure, abridged: (§1)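 Membranes from CHO-K1 cells expressing hNTS1 (15 µg, […] ¹²⁵I-[Tyr³]-NT) or 1321N1 cells expressing hNTS2 (50 µg, […] radioligand) were incubated with analogues at 10⁻¹¹–10⁻⁴ M for 60 min at 25 °C in Tris-HCl pH 7.5/0.2% BSA. Filtration and γ-counting followed; nonspecific binding was defined with 10⁻⁵ M NT(8-13), and IC50 was obtained by one-site fit.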

The target of experiment [2] is T2, hNTS2 receptor (Homo sapiens, UniProt O95665).
T2 construct: membranes prepared from them
The experiment in a line: Competitive radioligand binding assay on the hNTS2 receptor. The conditions noted are these: for IC50: membranes of 1321N1 cells expressing hNTS2; for Selectivity: ratio IC50 for NTS1 : IC50 for NTS2. The procedure, abridged: as §1

In experiment [3] the test system is Sprague-Dawley rats. Briefly: Tail-flick test (acute thermal pain), intrathecal injection. Format: in vivo, rat. The conditions noted are these: 61 nmol/kg i.t. The procedure:
Rats were housed two per cage on Aspen shavings in a quiet room and kept on a 12 h light/dark cycle and allowed ad libitum access to food and water. The experimental procedures in this study were approved by the Animal Care Committee of Université de Sherbrooke and were in accordance with policies and directives of the Canadian Council on Animal Care.
Tail-flick test: The tail flick test was used as outcome measures heat-induced pain in animals and as indicators of a compound's analgesic efficacy.
Acute pain was assessed using the Tail flick test (Tail Flick Analgesia meterV2.00, Colombus Instruments, Columbus, Ohio, USA). Tail flick test measures sensitivity to a high-intensity light beam focused on the rat tail. The tail flick apparatus was set at a light intensity of 6 and a cutoff of 10 seconds. The latency to flick the tail out of the path of the light beam corresponds to the measure of pain sensitivity or analgesia.
Before testing, animals were individually acclimatized to manipulations and behavioral apparatus 5 min/day for three consecutive days. On the test day, latencies baseline measures were taken before drug injection to provide a mean baseline. The compounds were diluted in 0.9% saline at the desired dose. The effects of the compound or saline on thermal nociception were assessed every 10 min for up to 60 min following i.t. administration.
Moreover, tail flick latencies were converted into the percent maximal possible effect (% MPE) at the time of maximal peak of analgesia. % MPE were calculated according to the following formula: % MPE=[(Test latency)−(Saline latency)]/[(Cutoff)−(Saline latency)]×100. Data are expressed as mean±SEM of 5-8 animals for each dose.
Then, ED50 values were determined using the dose-response stimulation log(agonist) vs response (four parameters).
Data are expressed as mean±standard errors of the mean (SEM). All graphs and statistical analysis were performed using GraphPad Prism™ 7 (GraphPad software, La Jolla, CA, USA). […] A two-way ANOVA followed by Tukey's multiple comparisons test was used to determine the significant differences in changes in body temperature between different concentrations of compounds and saline (FIG. 9). The % MPE for the tail-flick test and the areas under the curve for the formalin test were analyzed using a one-way ANOVA followed by a Dunnett's multiple comparisons test to compare different concentrations of compounds and saline treatment (FIGS. 2B, 4B, 7A-B and 8B-D). […] Nonlinear regression using three parameters was performed for % of ileum relaxation and IC50 value was obtained from the resulting dose-response curve (FIG. 11). A difference in response was considered significant with p-values *p<0.05, **p<0.01, ***p<0.001 and **p<0.0001.
On the technique in general: In hot-plate and tail-flick tests a longer latency is read as antinociception.

The test system of experiment [4] is ileum. Briefly: Ileum relaxation assay ex vivo. The conditions noted are these: 10^−11 to 10^−6 M, after contraction with carbachol. Further details: species or system rat. Here is the method: The functional ileum bioassay was carried out as described in detail elsewhere. (Van der Poorten, O., Van Den Hauwe, R., Eiselt, E., Betti, C., Guillemyn, K., Chung, N. N., Hall, F., Bihel, F., Schiller, P. W., Tourwé, D., Sarret, P., Gendron, L, . . . Ballet, S. (2017). X-Space Screening of Dermorphin-Based Tetrapeptides through Use of Constrained Arylazepinone and Quinolinone Scaffolds. ACS medicinal chemistry letters, 8(11), 1177-1182) Briefly, rats were euthanized, and 2 cm ileum segments were dissected out before removal of extraneous fat and connective tissue.
The ileum was then mounted under 0.5-g tension in a 10 mL organ bath containing warmed (37° C.) and oxygenated (95% O2, 5% CO2) Krebs solution (6.9 g/L NaCl, 0.145 g/L MgSO4, 2.1 g/L NaHCO3, 0.35 g/L KCl, 0.165 g/L KH2PO4, 1.98 g/L dextrose and 0.28 g/L CaCl2)). […] Contractions of the muscle were recorded via an isometric force transducer (159901A, Radnoti, Monrovia, CA, USA). […]
Each concentration of the compounds tested were followed by 2×15-min washout periods in Krebs solution to allow full relaxation. Dose-response curves were obtained with NT (8-13) (10^−11 to 10^−6) as standard for each ileum and for compound 34(10^−11 to 10^−5) and IC50 values were determined. […]
Data are expressed as mean±standard errors of the mean (SEM). […]

The mark [5] stands for this setting: IC50 NTS1, displacement of 125I-[Tyr3]-NT.
The mark [6] stands for this setting: IC50 NTS2, displacement of 125I-[Tyr3]-NT.

T2 sequence (O95665 whole entry): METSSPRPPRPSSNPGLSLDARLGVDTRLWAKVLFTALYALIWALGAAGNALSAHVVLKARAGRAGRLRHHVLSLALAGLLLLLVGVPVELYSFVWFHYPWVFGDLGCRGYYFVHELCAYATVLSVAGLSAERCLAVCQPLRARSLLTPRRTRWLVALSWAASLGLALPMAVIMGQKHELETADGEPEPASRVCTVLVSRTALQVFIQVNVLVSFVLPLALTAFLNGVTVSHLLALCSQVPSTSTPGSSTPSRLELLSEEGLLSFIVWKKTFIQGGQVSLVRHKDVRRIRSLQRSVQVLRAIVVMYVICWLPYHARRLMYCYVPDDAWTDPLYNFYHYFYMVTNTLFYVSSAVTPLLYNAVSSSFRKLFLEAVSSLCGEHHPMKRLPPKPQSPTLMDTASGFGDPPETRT
T1 sequence (P30989 whole entry): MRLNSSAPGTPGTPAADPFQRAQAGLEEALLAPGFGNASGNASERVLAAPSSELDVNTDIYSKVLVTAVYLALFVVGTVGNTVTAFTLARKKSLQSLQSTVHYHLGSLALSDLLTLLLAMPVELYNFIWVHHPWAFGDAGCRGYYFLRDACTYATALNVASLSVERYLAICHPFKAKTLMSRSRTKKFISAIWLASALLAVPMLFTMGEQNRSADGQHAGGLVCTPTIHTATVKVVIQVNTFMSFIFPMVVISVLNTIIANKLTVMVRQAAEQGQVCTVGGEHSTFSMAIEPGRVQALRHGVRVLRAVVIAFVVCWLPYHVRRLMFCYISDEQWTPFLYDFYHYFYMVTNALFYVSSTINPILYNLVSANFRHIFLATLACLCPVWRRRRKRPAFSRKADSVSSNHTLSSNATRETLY

By IC50 is commonly meant the concentration that inhibits the measured activity by half. `CC(C)C[C@H](NC(=O)[C@H](Cc1ccc(Br)cc1)NC(=O)[C@@H]1CC=CC[C@H](N)C(=O)N[C@@H](CCCCN)C(=O)N[C@@H](CCCCN)C(=O)N1)C(=O)O` [compound 116, c[G(All)KKG(All)]F(4-bromo)L] (H-[AllylGly]KK[AllylGly][Phe(4-Br)]L-OH; staple 1-4): the IC50 in experiment [1] (setting [5]) is greater than 100000 nM; in experiment [2] (setting [6]), 15.5 nM. Besides, in experiment [2], the Selectivity is given as greater than 6443. Also, the “latency of the tail-flick reflex compared to baseline” value (shortened to “latency … compared to baseline”) in experiment [3] is on record as “sustainably increased latency”.

The compound `CC[C@H](C)[C@H](NC(=O)[C@H](Cc1ccc(O)cc1)NC(=O)[C@@H]1CCCN1C(=O)[C@H](CCCNC(=N)N)NC(=O)[C@@H](N)CCCNC(=N)N)C(=O)N[C@@H](CC(C)C)C(=O)O` [NT(8-13), Neurotensin 8-13, reference compound] returned an IC50 in experiment [4] of 3.9 nM.

Turning to `CC1(C(=O)N[C@@H](Cc2ccc(O)cc2)C(=O)N[C@@H](CC2CCCC2)C(=O)O)CCCC=CC[C@H](N)C(=O)N[C@@H](CCCCN)C(=O)N[C@@H](CCCCN)C(=O)N1` (stereo partly drawn) [compound 128, c[G(All)KKG((S)-alpha-Me-(4-pentenyl))]YA(cyclopentyl)] (H-[AllylGly]KK[ξαMeNle(6-ylidene)]Y[Ala(cPent)]-OH; staple 1-4), the values for the half-inhibitory concentration (IC50) in experiment [1] (setting [5]) and in experiment [2] (setting [6]) were greater than 100000 nM and 7.8 nM, respectively. Also, the Selectivity in experiment [2] is 12788. The “latency … compared to baseline” value in experiment [3] is “sustainably increased latency”.

With `CC(C)C[C@H](NC(=O)[C@H](Cc1ccc(O)cc1)NC(=O)[C@@H]1CC=CCCC(=O)N[C@@H](CCCCN)C(=O)N[C@@H](CCCCN)C(=O)N1)C(=O)O` [compound 60, c[K(Pentenoyl)KG(All)]YL], the IC50 in experiment [1] (displacement of 125I-[Tyr3]-NT, read-out: IC50 NTS1) was greater than 100000 nM; in experiment [2] (displacement of 125I-[Tyr3]-NT, read-out: IC50 NTS2 (converted)) it was 47 nM. For the same compound, in experiment [2], the Selectivity is given as greater than 2127.7. In addition, the “Acute pain (tail beam) (i.t.)” value in experiment [3] (rat) is “No effect (61 nmol/kg)”.

For the compound `NCCCC[C@@H]1NC(=O)[C@H](CCCCN)NC(=O)[C@@H](N)CC=CC[C@@H](C(=O)N[C@@H](Cc2ccc(Br)cc2)C(=O)N[C@@H](CC2CCCC2)C(=O)O)NC1=O` [compound 127, c[G(All)KKG(All)]F(4-bromo)A(cyclopentyl)] (H-[AllylGly]KK[AllylGly][Phe(4-Br)][Ala(cPent)]-OH; staple 1-4), the IC50 in experiment [1] (setting [5]) was greater than 100000 nM; in experiment [2] (setting [6]) it was 2 nM. The Selectivity in experiment [2] was found to be 49505. Further, in experiment [3], the “latency … compared to baseline” value was “sustainably increased latency”.

In the case of `CC1(C(=O)N[C@@H](Cc2ccc(Br)cc2)C(=O)N[C@@H](CC2CCCC2)C(=O)O)CCCC=CC[C@H](N)C(=O)N[C@@H](CCCCN)C(=O)N[C@@H](CCCCN)C(=O)N1` (stereo partly drawn) [compound 133, c[G(All)KKG(alpha-Me-(4-pentenyl))]F(4-bromo)A (cyclopentyl)] (H-[AllylGly]KK[ξαMeNle(6-ylidene)][Phe(4-Br)][Ala(cPent)]-OH; staple 1-4), the figures for the half-inhibitory concentration (IC50) in experiment [1] (setting [5]) and in experiment [2] (setting [6]) were greater than 100000 nM and 3 nM, respectively. For the same compound, the Selectivity in experiment [2] came out at 33333. Further, in experiment [3], the “latency … compared to baseline” value was “sustainably increased latency”.
